Data from patent US10329294B2, “Pyrazolopyrimidine inhibitors of IRAK4 activity” (MERCK SHARP & DOHME CORP., priority 2015, dated 2019).
Counter-ions that a name gives are not always drawn.

molecular target: IRAK4 (Homo sapiens (Human), UniProt Q9NWZ3); test: IRAK4 Kinase Assay; type: biochemical; conditions: IMAP fluorescence polarization, 0.5 nM GST tagged IRAK4, 100 μM ATP, 30 minutes at 25° C.; read-out: IRAK4 IC50
Sequence (Q9NWZ3 whole entry): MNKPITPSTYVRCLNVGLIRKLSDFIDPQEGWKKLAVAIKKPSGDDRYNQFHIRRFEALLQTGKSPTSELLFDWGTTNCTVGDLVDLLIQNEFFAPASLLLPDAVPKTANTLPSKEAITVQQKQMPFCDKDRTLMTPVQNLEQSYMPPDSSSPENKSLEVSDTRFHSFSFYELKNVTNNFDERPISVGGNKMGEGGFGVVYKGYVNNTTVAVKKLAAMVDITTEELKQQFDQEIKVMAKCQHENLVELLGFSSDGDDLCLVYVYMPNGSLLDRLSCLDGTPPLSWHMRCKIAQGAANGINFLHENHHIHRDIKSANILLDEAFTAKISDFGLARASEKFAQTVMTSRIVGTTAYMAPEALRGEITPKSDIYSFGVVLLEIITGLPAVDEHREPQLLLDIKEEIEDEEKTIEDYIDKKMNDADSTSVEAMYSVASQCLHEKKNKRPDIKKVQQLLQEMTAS

| SMILES | IC50 |
| --- | --- |
| Cn1cc(NC(=O)c2cnn3ccc(N[C@@H]4CNCC[C@@H]4F)nc23)c(C(F)(F)F)n1 (single isomer, unassigned) [Example 230, 5-{[(3R,4S)- or (3S,4R)-4-fluoropiperidin-3-yl]amino}-N-[1-methyl-3-(trifluoromethyl)-1H-pyrazol-4-yl]pyrazolo[1,5-a]pyrimidine-3-carboxamide] | 0.5 nM |
| Cn1cc(NC(=O)c2cnn3ccc(N[C@H]4CNCC[C@H]4F)nc23)c(C(F)(F)F)n1 (single isomer, unassigned) [Example 231, 5-{[(3R,4S)- or (3S,4R)-4-fluoropiperidin-3-yl]amino}-N-[1-methyl-3-(trifluoromethyl)-1H-pyrazol-4-yl]pyrazolo[1,5-a]pyrimidine-3-carboxamide] | 47 nM |
| Cn1cc(NC(=O)c2cnn3ccc(N[C@@H]4CNCC[C@H]4F)nc23)c(C(F)(F)F)n1 (single isomer, unassigned) [Example 232, 5-{[(3R,4R)- or (3S,4S)-4-fluoropiperidin-3-yl]amino}-N-[1-methyl-3-(trifluoromethyl)-1H-pyrazol-4-yl]pyrazolo[1,5-a]pyrimidine-3-carboxamide] | 13 nM |
| Cn1cc(NC(=O)c2cnn3ccc(N[C@H]4CNCC[C@@H]4F)nc23)c(C(F)(F)F)n1 (single isomer, unassigned) [Example 233, 5-{[(3R,4R)- or (3S,4S)-4-fluoropiperidin-3-yl]amino}-N-[1-methyl-3-(trifluoromethyl)-1H-pyrazol-4-yl]pyrazolo[1,5-a]pyrimidine-3-carboxamide] | 0.5 nM |
| Cn1cc(NC(=O)c2cnn3ccc(NC4CNCCC4F)nc23)c(C(F)F)n1 (single isomer, unassigned) [Example 234, N-[3-(difluoromethyl)-1-methyl-1H-pyrazol-4-yl]-5-[(3R or S, 4R or S-4-fluoropiperidin-3-yl)amino]pyrazolo[1,5-a]pyrimidine-3-carboxamide] | 5 nM |
| Cn1cc(NC(=O)c2cnn3ccc(N[C@H]4CNCC(F)(F)C4)nc23)c(C(F)F)n1 (single isomer, unassigned) [Example 235, N-[3-(difluoromethyl)-1-methyl-1H-pyrazol-4-yl]-5-{[(3S)- or (3R)-5,5-difluoropiperidin-3-yl]amino}pyrazolo[1,5-a]pyrimidine-3-carboxamide] | 0.7 nM |
| Cn1cc(NC(=O)c2cnn3ccc(NC4CNCCC4F)nc23)c(C(F)F)n1 (single isomer, unassigned) [Example 236, N-[3-(difluoromethyl)-1-methyl-1H-pyrazol-4-yl]-5-[(3R or S, 4R or S-4-fluoropiperidin-3-yl)amino]pyrazolo[1,5-a]pyrimidine-3-carboxamide] | 0.6 nM |
| Cn1cc(NC(=O)c2cnn3ccc(NC4CNCCC4F)nc23)c(C(F)F)n1 (single isomer, unassigned) [Example 237, N-[3-(difluoromethyl)-1-methyl-1H-pyrazol-4-yl]-5-[(3R or S, 4R or S-4-fluoropiperidin-3-yl)amino]pyrazolo[1,5-a]pyrimidine-3-carboxamide] | 0.6 nM |
| Cn1cc(NC(=O)c2cnn3ccc(N4C[C@@H]5CNC[C@H]4C5)nc23)c(C(F)F)n1 (single isomer, unassigned) [Example 239, 5-[(1S,5R)- or (1R,5S)-3,6-diazabicyclo[3.2.1]oct-6-yl]-N-[3-(difluoromethyl)-1-methyl-1H-pyrazol-4-yl]pyrazolo[1,5-a]pyrimidine-3-carboxamide] | 3 nM |
| Cn1cc(NC(=O)c2cnn3ccc(N4C[C@H]5CNC[C@@H]4C5)nc23)c(C(F)F)n1 (single isomer, unassigned) [Example 240, 5-[(1S,5R)- or (1R,5S)-3,6-diazabicyclo[3.2.1]oct-6-yl]-N-[3-(difluoromethyl)-1-methyl-1H-pyrazol-4-yl]pyrazolo[1,5-a]pyrimidine-3-carboxamide] | 43 nM |
| Cn1cc(NC(=O)c2cnn3ccc(NC4CNCCC4F)nc23)c(C(F)F)n1 (single isomer, unassigned) [Example 241, N-[3-(difluoromethyl)-1-methyl-1H-pyrazol-4-yl]-5-[(3R or S, 4R or S-4-fluoropiperidin-3-yl)amino]pyrazolo[1,5-a]pyrimidine-3-carboxamide] | 3 nM |
| Cn1cc(NC(=O)c2cnn3ccc(N[C@H]4CNCCC4(F)F)nc23)c(C(F)F)n1 (single isomer, unassigned) [Example 242, N-[(R or S)-3-(difluoromethyl)-1-methyl-1H-pyrazol-4-yl]-5-[(4,4-difluoropiperidin-3-yl)amino]pyrazolo[1,5-a]pyrimidine-3-carboxamide trifluoroacetate] | 2 nM |
| Cn1cc(NC(=O)c2cnn3ccc(N[C@H]4CNCCC4(F)F)nc23)c(C(F)(F)F)n1 (single isomer, unassigned) [Example 243, 5-[(R or S)-(4,4-difluoropiperidin-3-yl)amino]-N-[1-methyl-3-(trifluoromethyl)-1H-pyrazol-4-yl]pyrazolo[1,5-a]pyrimidine-3-carboxamide trifluoroacetate] | 0.5 nM |
| Cn1cc(NC(=O)c2cnn3ccc(N[C@H]4CNCCC4(F)F)nc23)c(C(F)F)n1 (single isomer, unassigned) [Example 244, N-[(R or S)-3-(difluoromethyl)-1-methyl-1H-pyrazol-4-yl]-5-[(4,4-difluoropiperidin-3-yl)amino]pyrazolo[1,5-a]pyrimidine-3-carboxamide trifluoroacetate] | 0.5 nM |
| Cn1cc(NC(=O)c2cnn3ccc(N[C@H]4CNCCC4(F)F)nc23)c(C(F)(F)F)n1 (single isomer, unassigned) [Example 245, 5-[(R or S)-(4,4-difluoropiperidin-3-yl)amino]-N-[1-methyl-3-(trifluoromethyl)-1H-pyrazol-4-yl]pyrazolo[1,5-a]pyrimidine-3-carboxamide trifluoroacetate] | 8 nM |
| Cn1cc(NC(=O)c2cnn3ccc(NC4CCCCC4)nc23)cn1 [Example 3, 5-(cyclohexylamino)-N-(1-methyl-1H-pyrazol-4-yl)pyrazolo[1,5-a]pyrimidine-3-carboxamide trifluoroacetate] | 237 nM |
| Cn1cc(NC(=O)c2cnn3ccc(N4CCN(CC5CC5)CC4)nc23)c(C(F)(F)F)n1 [Example 6, 5-[4-(cyclopropylmethyl)piperazin-1-yl]-N-[1-methyl-3-(trifluoromethyl)-1H-pyrazol-4-yl]pyrazolo[1,5-a]pyrimidine-3-carboxamide] | 681 nM |
| Cn1cc(NC(=O)c2cnn3ccc(NC4CCNCC4)nc23)c(C(F)(F)F)n1 [Example 7, N-[1-methyl-3-(trifluoromethyl)-1H-pyrazol-4-yl]-5-(piperidin-4-ylamino)pyrazolo[1,5-a]pyrimidine-3-carboxamide trifluoroacetate] | 39 nM |
| Cn1cc(NC(=O)c2cnn3ccc(N4CCCNCC4)nc23)c(C(F)(F)F)n1 [Example 8, 5-(1,4-diazepan-1-yl)-N-[1-methyl-3-(trifluoromethyl)-1H-pyrazol-4-yl]pyrazolo[1,5-a]pyrimidine-3-carboxamide trifluoroacetate] | 66 nM |
| Cn1cc(NC(=O)c2cnn3ccc(N[C@@H]4CCCNC4)nc23)c(C(F)(F)F)n1 [Example 9, N-[1-methyl-3-(trifluoromethyl)-1H-pyrazol-4-yl]-5-[(3R)-piperidin-3-ylamino]pyrazolo[1,5-a]pyrimidine-3-carboxamide trifluoroacetate] | 0.5 nM |
| CCN1CCCN(c2ccn3ncc(C(=O)Nc4cn(C)nc4C(F)(F)F)c3n2)CC1 [Example 10, 5-(4-ethyl-1,4-diazepan-1-yl)-N-[1-methyl-3-(trifluoromethyl)-1H-pyrazol-4-yl]pyrazolo[1,5-a]pyrimidine-3-carboxamide] | 1100 nM |
| Cn1cc(NC(=O)c2cnn3ccc(N4CC5CCC4CN5)nc23)c(C(F)(F)F)n1 (stereo not shown) [Example 11, 5-(2,5-diazabicyclo[2.2.2]oct-2-yl)-N-[1-methyl-3-(trifluoromethyl)-1H-pyrazol-4-yl]pyrazolo[1,5-a]pyrimidine-3-carboxamide hydrochloride] | 28 nM |
| Cn1cc(NC(=O)c2cnn3ccc(NC4CCCCNC4)nc23)c(C(F)(F)F)n1 (stereo not shown) [Example 12, 5-(azepan-3-ylamino)-N-[1-methyl-3-(trifluoromethyl)-1H-pyrazol-4-yl]pyrazolo[1,5-a]pyrimidine-3-carboxamide hydrochloride] | 6 nM |
| Cn1cc(NC(=O)c2cnn3ccc(N4CC5CC4CN5)nc23)c(C(F)(F)F)n1 (stereo not shown) [Example 13, 5-(2,5-diazabicyclo[2.2.1]hept-2-yl)-N-[1-methyl-3-(trifluoromethyl)-1H-pyrazol-4-yl]pyrazolo[1,5-a]pyrimidine-3-carboxamide hydrochloride] | 179 nM |
| Cn1cc(NC(=O)c2cnn3ccc(N4CCNCC5(CC5)C4)nc23)c(C(F)(F)F)n1 [Example 14, 5-(5,8-diazaspiro[2.6]non-5-yl)-N-[1-methyl-3-(trifluoromethyl)-1H-pyrazol-4-yl]pyrazolo[1,5-15a]pyrimidine-3-carboxamide trifluoroacetate] | 16 nM |
| Cn1cc(NC(=O)c2cnn3ccc(N4CCNC(C(F)(F)F)C4)nc23)c(C(F)(F)F)n1 (stereo not shown) [Example 15, N-[1-methyl-3-(trifluoromethyl)-1H-pyrazol-4-yl]-5-(3-(trifluoromethyl)piperazin-1-yl]pyrazolo[1,5-a]pyrimidine-3-carboxamide] | 113 nM |
| Cn1cc(NC(=O)c2cnn3ccc(N4CCNC(C(F)F)C4)nc23)c(C(F)(F)F)n1 (stereo not shown) [Example 16, 5-[3-(difluoromethyl)piperazin-1-yl]-N-[1-methyl-3-(trifluoromethyl)-1H-pyrazol-4-yl]pyrazolo[1,5-a]pyrimidine-3-carboxamide formate] | 49 nM |
| Cn1cc(NC(=O)c2cnn3ccc(NC4CCCNCC4)nc23)c(C(F)(F)F)n1 (stereo not shown) [Example 17, 5-(azepan-4-ylamino)-N-[1-methyl-3-(trifluoromethyl)-1H-pyrazol-4-yl]pyrazolo[1,5-a]pyrimidine-3-carboxamide hydrochloride] | 14 nM |
